Test: recombinant UMI read abundance after kanamycin selection (control-corrected) (log10(CPM+1)); higher = more efficient recombination; extreme values may be limits of the assay; sequences stand for … in AGTGCAGAGAAAATCGGCCAGTTTTCTCTGCCTGCAGTCCGCATGCCGTGGGACCCCTTGGGTTCTAACCTGTTGCCTAGATTTATGCAGCGGACTGCCTTTCTCCCAAAGTGATAAACCGG…AGGTTGGTTTCACT; site = the 11-nt donor
Protocol: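 Pooled E. coli donor-specificity screen for the IS621 bridge recombinase. Each library member carries a reprogrammed 11-nt donor and a full-length LE bridge RNA expressed in cis from the natural promoter, with a paired donor-binding loop (8-nt LDG + 4-nt RDG) and a target-binding loop fixed to T5. It is co-electroporated with a T5 target plasmid; recombinase is induced with 0.07 mM IPTG and recombinants are selected on kanamycin. UMIs are counted as CPM, averaged over two biological replicates and corrected by the unselected control. Molecule = full bridge RNA written as DNA, built from the T5 scaffold: LDG = donor specificity nt 1-8, RDG = reverse complement of nt 8-11.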
With “ACGCGGACATGGACCGGTTTTCCCGGTAATCCGTATTTGCA (site ACGCGGACTTG)” the “recombinant UMI read abundance (log10)” value was 2.76. With “ACGCGGCCATGGACCGGTTTTCCCGGTAATCCGTATTTGCA (site ACGCGGCCTTG)” the “recombinant UMI read abundance (log10)” value was 1.1. For “ACGCGTTCATGGACCGGTTTTCCCGGTAATCCGTATTTGCG (site ACGCGTTCTCG)”, the “recombinant UMI read abundance (log10)” value was 1.8. With “ACGGCATCATGGACCGGTTTTCCCGGTAATCCGTATTTGCA (site ACAGTATCTTG)” the “recombinant UMI read abundance (log10)” value was 1.47. For “ACGGCATCATGGACCGGTTTTCCCGGTAATCCGTATTTGCA (site ACGGCATCTTG)”, the “recombinant UMI read abundance (log10)” value was 1.77. With “ACGGCTACATGGACCGGTTTTCCCGGTAATCCGTATTTGAC (site ACGGCTACTGT)” the “recombinant UMI read abundance (log10)” value was 2.45. For “ACGGGACCATGGACCGGTTTTCCCGGTAATCCGTATTTGTA (site ACGGGACCTTA)”, the “recombinant UMI read abundance (log10)” value was 0.00398. For “ACGGGCACATGGACCGGTTTTCCCGGTAATCCGTATTTGGT (site ACGGGCACTAC)”, the “recombinant UMI read abundance (log10)” value was 0.805. In the case of “ACGGTATCATGGACCGGTTTTCCCGGTAATCCGTATTTGCG (site ACAGTATCTTG)”, the “recombinant UMI read abundance (log10)” value is reported as 2.27. In the case of “ACGGTATCATGGACCGGTTTTCCCGGTAATCCGTATTTGCG (site ACGGTATCTCG)”, the “recombinant UMI read abundance (log10)” value is reported as 3.15. With “ACGGTATCATGGACCGGTTTTCCCGGTAATCCGTATTTGGG (site ACGGTATCTCC)” the “recombinant UMI read abundance (log10)” value was 1.62. With “ACGGTATCATGGACCGGTTTTCCCGGTAATCCGTATTTGTA (site ACAGTATCTTG)” the “recombinant UMI read abundance (log10)” value was 2.09. For “ACGGTATCATGGACCGGTTTTCCCGGTAATCCGTATTTGTA (site ACGGTATCTTA)”, the “recombinant UMI read abundance (log10)” value was 3.09. In the case of “ACGGTCACATGGACCGGTTTTCCCGGTAATCCGTATTTGTA (site ACGGTCACTTA)”, the “recombinant UMI read abundance (log10)” value is reported as 1.59. In the case of “ACGGTTTCATGGACCGGTTTTCCCGGTAATCCGTATTTGTG (site ACGGTTTCTCA)”, the “recombinant UMI read abundance (log10)” value is reported as 2.4. In the case of “ACGTACTCATGGACCGGTTTTCCCGGTAATCCGTATTTGGA (site ACGTACTCTTC)”, the “recombinant UMI read abundance (log10)” value is reported as 2.95. For “ACGTAGGCATGGACCGGTTTTCCCGGTAATCCGTATTTGAA (site ACGTAGGCTTT)”, the “recombinant UMI read abundance (log10)” value was 1.96. In the case of “ACGTAGGCATGGACCGGTTTTCCCGGTAATCCGTATTTGGC (site AAGTAGGCTGC)”, the “recombinant UMI read abundance (log10)” value is reported as 1.32. For “ACGTAGGCATGGACCGGTTTTCCCGGTAATCCGTATTTGGC (site ACGTAGGCTGC)”, the “recombinant UMI read abundance (log10)” value was 2.6. With “ACGTAGGCATGGACCGGTTTTCCCGGTAATCCGTATTTGGC (site AGGTAGGCTGC)” the “recombinant UMI read abundance (log10)” value was 1.06. In the case of “ACGTAGGCATGGACCGGTTTTCCCGGTAATCCGTATTTGGC (site ATGTAGGCTGC)”, the “recombinant UMI read abundance (log10)” value is reported as 1.21. With “ACGTGAGCATGGACCGGTTTTCCCGGTAATCCGTATTTGGA (site ACGTGAGCTTC)” the “recombinant UMI read abundance (log10)” value was 1.78. In the case of “ACGTTAGCATGGACCGGTTTTCCCGGTAATCCGTATTTGTG (site ACGTTAGCTCA)”, the “recombinant UMI read abundance (log10)” value is reported as 1.84. In the case of “ACGTTAGCATGGACCGGTTTTCCCGGTAATCCGTATTTGTG (site CCGTTAGCTCA)”, the “recombinant UMI read abundance (log10)” value is reported as 0.742. With “ACGTTAGCATGGACCGGTTTTCCCGGTAATCCGTATTTGTG (site GCGTTAGCTCA)” the “recombinant UMI read abundance (log10)” value was 0.298. With “ACGTTAGCATGGACCGGTTTTCCCGGTAATCCGTATTTGTG (site TCGTTAGCTCA)” the “recombinant UMI read abundance (log10)” value was 0.526. In the case of “ACGTTCACATGGACCGGTTTTCCCGGTAATCCGTATTTGCC (site ACGTTCACTGG)”, the “recombinant UMI read abundance (log10)” value is reported as 2.69. For “ACGTTGCCATGGACCGGTTTTCCCGGTAATCCGTATTTGTT (site ACGTTGCCTAA)”, the “recombinant UMI read abundance (log10)” value was 0.363. In the case of “ACTAAAACATGGACCGGTTTTCCCGGTAATCCGTATTTGAG (site ACTAAAACTCT)”, the “recombinant UMI read abundance (log10)” value is reported as 1.77. For “ACTAAAACATGGACCGGTTTTCCCGGTAATCCGTATTTGAG (site ACTACAACTCT)”, the “recombinant UMI read abundance (log10)” value was 0.0124. With “ACTAAAACATGGACCGGTTTTCCCGGTAATCCGTATTTGAG (site ACTAGAACTCT)” the “recombinant UMI read abundance (log10)” value was 0.267. With “ACTAAAACATGGACCGGTTTTCCCGGTAATCCGTATTTGAG (site ACTATAACTCT)” the “recombinant UMI read abundance (log10)” value was 0.376. In the case of “ACTAAAGCATGGACCGGTTTTCCCGGTAATCCGTATTTGAT (site ACTAAAGCTAT)”, the “recombinant UMI read abundance (log10)” value is reported as 2.22. For “ACTAAAGCATGGACCGGTTTTCCCGGTAATCCGTATTTGAT (site CCTAAAGCTAT)”, the “recombinant UMI read abundance (log10)” value was 0. With “ACTAAAGCATGGACCGGTTTTCCCGGTAATCCGTATTTGAT (site GCTAAAGCTAT)” the “recombinant UMI read abundance (log10)” value was 0.0031. With “ACTAAAGCATGGACCGGTTTTCCCGGTAATCCGTATTTGAT (site TCTAAAGCTAT)” the “recombinant UMI read abundance (log10)” value was 0.855.
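Further: IS621 bridge recombinase in Escherichia coli cells against a fixed T5 target plasmid.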
